Laboratory results reported in PubChem BioAssay AID330 (DTP/NCI, 2004).
Values joined by “and” are separate entries in the source; they are usually repeats but may differ in a detail not shown here. Equal values may be shown once. Toxic doses and inconclusive results are not listed. The calls were made as follows: active = survival T/C of 150% or more; inactive = T/C below 125% in these data.

Tested on: P388 leukemia ip, CD2F1 mice, survival T/C
Assay: NCI In Vivo Anticancer Drug Screen. Data for tumor model P388 Leukemia (intraperitoneal) in CD2F1 (CDF1) mice
Settings: endpoint: median survival time, higher = longer survival
Procedure, shortened: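 Mice carrying the transplanted tumor received test compound or vehicle. Survival was recorded in each group, and the value is the treated-group measurement divided by that of the vehicle-treated control group.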

[1] = dose: 50.0 mg/kg/injection, schedule: Q01DX009 (ip), vehicle: Klucel (hydroxypropylcellulose) (HPC)
[2] = dose: 100.0 mg/kg/injection, schedule: Q01DX009 (ip), vehicle: Klucel (hydroxypropylcellulose) (HPC)
[3] = dose: 200.0 mg/kg/injection, schedule: Q01DX009 (ip), vehicle: Klucel (hydroxypropylcellulose) (HPC)
[4] = dose: 60.0 mg/kg/injection, schedule: Q01DX005 (ip), vehicle: Klucel (hydroxypropylcellulose) (HPC)
[5] = dose: 120.0 mg/kg/injection, schedule: Q01DX005 (ip), vehicle: Klucel (hydroxypropylcellulose) (HPC)
[6] = dose: 240.0 mg/kg/injection, schedule: Q01DX005 (ip), vehicle: Klucel (hydroxypropylcellulose) (HPC)
[7] = dose: 50.0 mg/kg/injection, schedule: Q01DX009 (ip), vehicle: saline with Tween-80
[8] = dose: 100.0 mg/kg/injection, schedule: Q01DX009 (ip), vehicle: saline with Tween-80
[9] = dose: 200.0 mg/kg/injection, schedule: Q01DX009 (ip), vehicle: saline with Tween-80
[10] = dose: 25.0 mg/kg/injection, schedule: Q01DX009 (ip), vehicle: Klucel (hydroxypropylcellulose) (HPC)

Measured: T/C

C=CCCCCCCCCC(=O)N1C(=O)C(c2ccccc2)(c2ccccc2)CSC1=S
inactive: [1] 91 % of control | [2] 92 % of control | [3] 90 % of control

CC1S/C(=N\N=C\c2ccc(Cl)cc2)N=C1c1c(O)c2ccccc2oc1=O (stereo not given)
inactive: [4] 93 % of control | dose: 60.0 mg/kg/injection, schedule: Q02DX002 (ip), vehicle: Klucel (hydroxypropylcellulose) (HPC) 91 % of control | [5] 91 % of control | dose: 120.0 mg/kg/injection, schedule: Q02DX002 (ip), vehicle: Klucel (hydroxypropylcellulose) (HPC) 94 % of control | [6] 86 % of control | dose: 240.0 mg/kg/injection, schedule: Q02DX002 (ip), vehicle: Klucel (hydroxypropylcellulose) (HPC) 94 % of control

O=c1oc2nc(-c3ccccc3)[nH]c(=O)c2c(O)c1-c1ccccc1
inactive: [4] 96 % of control | [5] 96 % of control

CCCC(C)C(=O)N(C(C)=O)c1ccc(Cl)c(Cl)c1 (stereo not given)
inactive: [7] 103 % of control | [8] 103 % of control | [9] 110 % of control

CN(C)C(CC(N)=O)C(=O)O (stereo not given)
inactive: dose: 50.0 mg/kg/injection, schedule: Q01DX009 (ip), vehicle: water 101 % of control | dose: 100.0 mg/kg/injection, schedule: Q01DX009 (ip), vehicle: water 102 % of control | dose: 200.0 mg/kg/injection, schedule: Q01DX009 (ip), vehicle: water 97 % of control

Cc1c([N+](=O)[O-])/c(=N/O)c2c(=O)c([N+](=O)[O-])coc2n1O
inactive: [1] 108 % of control | [2] 99 % of control | [3] 90 % of control

COC(=O)c1nc(N)nc(C(=O)OC)c1C(=O)c1ccc2ccccc2c1
inactive: [4] 102 % of control | [5] 101 % of control

CSc1cnc(N)s1
inactive: dose: 12.5 mg/kg/injection, schedule: Q01DX009 (ip), vehicle: Klucel (hydroxypropylcellulose) (HPC) 108 % of control | [10] 115 % of control | [1] 100 % of control | [2] 104 % of control

Cc1nc2c(o1)CCCC2
inactive: dose: 60.0 mg/kg/injection, schedule: Q01DX005 (ip), vehicle: saline with Tween-80 95 % of control | dose: 120.0 mg/kg/injection, schedule: Q01DX005 (ip), vehicle: saline with Tween-80 90 % of control | dose: 240.0 mg/kg/injection, schedule: Q01DX005 (ip), vehicle: saline with Tween-80 99 % of control

CC(=O)C1(C(C)=O)C2=C(C(=O)C(Cl)=C(Cl)C2=O)N2C=CC=CC21 (stereo not given)
inactive: dose: 100.0 mg/kg/injection, schedule: Q04DX002 (ip), vehicle: saline 102 % of control | dose: 200.0 mg/kg/injection, schedule: Q04DX002 (ip), vehicle: saline 88 % of control

O=S(=O)(N/N=C/c1cccc(Cl)c1)c1ccccc1
inactive: [4] 109 % of control | [5] 104 % of control | [6] 105 % of control

CCCSCC
inactive: dose: 100.0 mg/kg/injection, schedule: Q04DX003 (ip), vehicle: saline with Tween-80 104 % of control | dose: 200.0 mg/kg/injection, schedule: Q04DX003 (ip), vehicle: saline with Tween-80 100 % of control | dose: 400.0 mg/kg/injection, schedule: Q04DX003 (ip), vehicle: saline with Tween-80 100 % of control

Cc1ccnc(NC(O)C(Cl)(Cl)Cl)c1 (stereo not given)
inactive: [10] 100 % of control | [1] 100 % of control | [2] 98 % of control | [3] 100 % of control

COc1ccc2c(Cl)ccnc2c1OC
inactive: dose: 50.0 mg/kg/injection, schedule: Q01DX005 (ip), vehicle: saline with Tween-80 99 % of control | dose: 100.0 mg/kg/injection, schedule: Q01DX005 (ip), vehicle: saline with Tween-80 107 % of control

Cc1ccccc1/C=C1/C(=O)C(c2ccccc2)=C1c1ccccc1
inactive: dose: 100.0 mg/kg/injection, schedule: Q01DX001 (ip), vehicle: Klucel (hydroxypropylcellulose) (HPC) 105 % of control | dose: 200.0 mg/kg/injection, schedule: Q01DX001 (ip), vehicle: Klucel (hydroxypropylcellulose) (HPC) 106 % of control | dose: 400.0 mg/kg/injection, schedule: Q01DX001 (ip), vehicle: Klucel (hydroxypropylcellulose) (HPC) 100 % of control

c1ccc([Si]2(c3ccccc3)O[Si](c3ccccc3)(c3ccccc3)O[Si](c3ccccc3)(c3ccccc3)O[Si](c3ccccc3)(c3ccccc3)O2)cc1
inactive: dose: 25.0 mg/kg/injection, schedule: Q01DX009 (ip), vehicle: saline with Tween-80 95 % of control and 97 % of control | [7] 100 % of control and 92 % of control and 93 % of control | [8] 120 % of control and 94 % of control and 95 % of control | [9] 90 % of control (2×) and 93 % of control
